Assay results: paper PMC11421850, “Identification of pharmacological inducers of a reversible hypometabolic state for whole organ preservation” (eLife, 2024)

Biological target: T1, delta opioid receptor (DOR) (Homo sapiens, UniProt P41143)
T1 construct: gene OPRD1
Assay: biochemical

T1 sequence (P41143 whole entry): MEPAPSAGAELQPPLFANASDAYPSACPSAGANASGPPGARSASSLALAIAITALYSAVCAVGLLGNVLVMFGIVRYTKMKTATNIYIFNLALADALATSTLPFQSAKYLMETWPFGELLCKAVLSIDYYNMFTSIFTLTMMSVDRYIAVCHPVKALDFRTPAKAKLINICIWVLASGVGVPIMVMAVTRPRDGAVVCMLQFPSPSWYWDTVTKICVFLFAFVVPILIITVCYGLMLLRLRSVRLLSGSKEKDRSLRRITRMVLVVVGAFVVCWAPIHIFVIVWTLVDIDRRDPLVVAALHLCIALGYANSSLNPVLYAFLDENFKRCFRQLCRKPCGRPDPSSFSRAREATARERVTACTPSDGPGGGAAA

SMILES: CCN(CC)C(=O)c1ccc([C@H](c2cccc(OC)c2)N2C[C@@H](C)OC[C@@H]2C)cc1 [WB3]
- IC50: 3.47 µM
